Laboratory results reported in US12421517B2, “Genetic modification of mammalian cells to confer resistance to CSF1R antagonists” (THE REGENTS OF THE UNIVERSITY OF CALIFORNIA, priority 2021, dated 2025).
Entries after “also recorded” stand apart in the source; their conditions may differ.

Experiments:
[1] = system: wild-type (WT) iPSC-microglia; assay: LIVE/DEAD viability/cytotoxicity assay; format: cell-based, human; conditions: 500 nM or 1 uM, 24 hours
Description: (§1) FIGS. 5A and 5B show G795A iPSC-derived microglia are resistant to CSF1R antagonist-induced cell death. As cells can die from processes other than caspase-mediated apoptosis, it is important to determine whether the G795A mutation provides a more broad-based resistance to any form of cell death induced by CSF1R antagonists. Therefore, G795A and wild-type (WT) iPSC-microglia were treated for 24 hours with either 500 nM (FIG. 5A) or 1 uM (FIG. 5B) of DMSO vehicle control or one of four CSF1R antagonists; PLX3397, PLX5622, Edicotinib, and BLZ945. The percent of live versus dead cells was then quantified using a two-color viability/cytotoxicity approach (Thermo L3224; LIVE/DEAD™ Viability/Cytotoxicity Kit). Very few dead microglia are observed 24 hours after treatment with DMSO. […] Live cells are denoted with a circle.

G795A iPSC-microglia [2] = assay: LIVE/DEAD viability/cytotoxicity assay; format: cell-based, human; conditions: 500 nM or 1 uM, 24 hours
Description: as §1

G795C iPSC-microglia = assay: Caspase 3/7 cell death assay (IncuCyte, 24 h imaging); format: cell-based, human; conditions: 250 nM, 500 nM, 1 μm, versus DMSO control
Description: (§2) FIGS. 4A, 4B, 4C, 4D, and 4E show human stem cell-derived microglia are also susceptible to and killed by CSF1R inhibition in vitro. […] Images captured on Incucyte S3 live-cell imager. […] Images captured on Incucyte S3 live-cell imager. […] Images captured on Incucyte S3 live-cell imager. […] Images captured on Incucyte S3 live-cell imager. […] For all panels, n=4 images in six independent wells were quantified. Data represented as mean values±SEM.
(§3) Strategy 1: A crystal structure of the CSF1R receptor bound to an antagonist (PMID: 31434879) to predict amino acid substitutions that may sterically hinder the binding of CSF1R antagonists while not impairing the normal binding of ATP into the same binding pocket. The crystal structure of PLX5622 bound to human CSF1R was obtained and the ATP binding pocket was examined (FIG. 7A). Through molecular modeling single amino acid changes were predicted that would likely impair the binding of PLX5622 or PLX3397 or other CSF1R antagonists while not disrupting normal ATP binding to CSF1R. […] Other mutations could also be explored to prevent binding (FIG. 7D). […] The resulting iPSCs were then differentiated into microglia and exposed to varying concentrations of either PLX3397 or PLX5622. To detect microglial cell death (apoptosis) a caspase-3/7 fluorogenic reporter was used. […] FIG. 4F provided representative images of cell density (phase-contrast microscopy, 1st column) and fluorescent Caspase-3/7 activity (2nd column) across each dose of PLX3397 and PLX5622.
(§4) Resistance to each of the CSF1R inhibitors tested was quantified using a fluorogenic caspase 3/7 detector (Essen BioScience) and time-lapse imaging over 24 hours.
(§5) Cell death assay: iPS-microglia were plated at 70K cells per 96-well plate (6 wells per line per condition). At time 0, all microglia were treated with IncuCyte Caspase-3/7 Green Apoptosis Assay Reagent 1:1000. Cells were maintained in the described medium: fresh complete medium+0.1% DMSO, complete media+250 nM PLX3397, complete medium+500 nM PLX3397, complete medium+1 μm PLX3397, complete medium+250 nM PLX5622, complete medium+500 nM PLX5622, complete medium+1 μm PLX5622, complete medium+250 nM Edicotinib, complete medium+500 nM Edicotinib, complete medium+1 μm Edicotinib, complete medium+250 nM BLZ945, complete medium+500 nM BLZ945, complete medium+1 μm BLZ945. Four 20× images per well were collected every hour for 24 hours. Using IncuCyte 2020B software, image masks for phase confluence (visually gated out apoptotic cells) as well as caspase 3/7 signal (green) were generated. Graphs display caspase normalized to phase confluence, completed with 3 lines: WT, G795A, G795C (see FIGS. 4A, 4B, 4C, 4D, and 4E).

WT microglia [3] = assay: as above; format: cell-based, human; conditions: 250 nM, 500 nM, 1 μm, versus DMSO control
Description: as §2, §3, §4, §5

G795A iPSC-microglia [4] = assay: as above; format: cell-based, human; conditions: 250 nM, 500 nM, 1 μm, versus DMSO control
Description: as §2, §3, §4, §5

[5] = system: CSF1R-G795A human iPSC-microglia; assay: Quantification of human iPSC-microglial engraftment (Ku80+/Iba1+) in adult hCSF1 mice; format: in vivo; conditions: after CSF1R-G795A iPSC-microglia transplantation, 600 mg/kg PLX3397 in food
Description: In contrast, when CSF1R-G795A iPSC-microglia transplantation is followed with treatment of mice for 10 days with PLX3397 containing mouse chow (600 mg/kg PLX3397 in food), the percent of human microglia increases to almost 25%. After 30 days of PLX3397 treatment (600 mg/kg PLX3397 in food), 90-95% of all microglia in the brain are human as evidenced by co-expression of Ku80 and IBA1. By transplanting CSF1R-G795A iPSC-microglia and varying the concentration and duration of CSF1R antagonist treatment either before, during, or after transplantation, one can control the degree of human iPSC-microglial engraftment.

wild-type human xMGs = assay: Xenotransplanted human microglia in adult mice, PLX3397 chow, immunohistochemistry; format: in vivo; conditions: 600 mg/kg in rodent chow ad libitum, 4 weeks
Description: (§6) FIGS. 11A, 11B, 110, 11D, 11E, 11F, 11G, 11H, 11I, and 11J show G795A iPSC-derived microglia are resistant to CSF1R […] treatment and enable robust engraftment of human microglia within the adult mammalian brain. Xenotransplantation-compatible mice received bilateral stereotactic intrahippocampal injections of 500,000 iPSC-derived human microglia (xMGs) at 2-months of age. Mice received xMGs differentiated from either a homozygous CSF1R-resistant G795A human IPSO line or an isogenic unmodified Wad-Type human iPSC. At […], mice were treated with 600 mg/kg of PLX3397 in rodent chow ad libitum for 4 weeks duration. Mice were then sacrificed, and half-brains were examined by fluorescent immunohistochemistry and confocal microscopy.

G795A xMGs = assay: as above; format: in vivo; conditions: 600 mg/kg in rodent chow ad libitum, 4 weeks
Description: as §6

MUT2 (G795C) microglia = assay: RNA-seq after 24-hour treatment versus DMSO; format: cell-based, human
Description: (§7) FIGS. 2A, 2B, 2C, 2D, 2E, and 2F show selected CSF1R mutations have little effect on transcriptomic signature while simultaneously imparting resistance to PLX5622.

WT microglia [6] = assay: RNA-seq after 24-hour treatment versus DMSO; format: cell-based, human; conditions: FDR≤0.05, log 2(FC)≥±1
Description: as §7

MUT1 (G795A) microglia = assay: RNA-seq after 24-hour treatment versus DMSO; format: cell-based, human
Description: as §7

## CNC(=O)c1cc(Oc2ccc3nc(N[C@@H]4CCCC[C@H]4O)sc3c2)ccn1 [BLZ945]
[1]
  cell death (live versus dead cells): substantial cell death
G795A iPSC-microglia [2]
  cell death (live versus dead cells): little-to-no cell death
G795C iPSC-microglia
  caspase 3/7 levels (cell death, apoptosis): no significant increase in caspase levels
WT microglia [3]
  caspase 3/7 levels (cell death, apoptosis): significant levels of increased caspase
G795A iPSC-microglia [4]
  caspase 3/7 levels (cell death, apoptosis): no significant increase in caspase levels

## CC1(C)CC=C(c2nc(C3CC(C)(C)OC(C)(C)C3)ccc2NC(=O)c2nc(C#N)c[nH]2)CC1 [Edicotinib]
[1]
  cell death (live versus dead cells): substantial cell death
G795A iPSC-microglia [2]
  cell death (live versus dead cells): little-to-no cell death
G795C iPSC-microglia
  caspase 3/7 levels (cell death, apoptosis): no significant increase in caspase levels
WT microglia [3]
  caspase 3/7 levels (cell death, apoptosis): significant levels of increased caspase
G795A iPSC-microglia [4]
  caspase 3/7 levels (cell death, apoptosis): no significant increase in caspase levels

## FC(F)(F)c1ccc(CNc2ccc(Cc3c[nH]c4ncc(Cl)cc34)cn2)cn1 [PLX3397]
[5]; 10 days
  percent of human microglia (Ku80+/Iba1+) of total microglia: ~25%
[5]; 30 days
  percent of human microglia (Ku80+/Iba1+) of total microglia: 90-95%
[1]
  cell death (live versus dead cells): substantial cell death
G795A iPSC-microglia [2]
  cell death (live versus dead cells): little-to-no cell death
wild-type human xMGs
  survival of transplanted xMGs in the brain: only a handful of wild-type human xMGs survive
G795A xMGs
  survival and expansion of transplanted xMGs in the brain: proliferate and expand
G795C iPSC-microglia
  caspase 3/7 levels (cell death, apoptosis): complete resistance to cell death; also recorded: no significant increase in caspase levels
WT microglia [3]
  caspase 3/7 levels (cell death, apoptosis): robust dose-dependent induction of apoptosis; also recorded: significant levels of increased caspase
G795A iPSC-microglia [4]
  caspase 3/7 levels (cell death, apoptosis): complete resistance to cell death; also recorded: no significant increase in caspase levels

## COc1ncc(F)cc1CNc1ccc(Cc2c[nH]c3ncc(C)cc23)c(F)n1 [PLX5622]
[1]
  cell death (live versus dead cells): substantial cell death
G795A iPSC-microglia [2]
  cell death (live versus dead cells): little-to-no cell death
G795C iPSC-microglia
  caspase 3/7 levels (cell death, apoptosis): complete resistance to cell death; also recorded: no significant increase in caspase levels
WT microglia [3]
  caspase 3/7 levels (cell death, apoptosis): robust dose-dependent induction of apoptosis; also recorded: significant levels of increased caspase
G795A iPSC-microglia [4]
  caspase 3/7 levels (cell death, apoptosis): complete resistance to cell death; also recorded: no significant increase in caspase levels
MUT2 (G795C) microglia
  transcriptomic alterations versus DMSO-treated cells: failed to significantly alter gene expression
WT microglia [6]
  transcriptomic alterations versus DMSO-treated cells: induced significant transcriptomic alterations
MUT1 (G795A) microglia
  transcriptomic alterations versus DMSO-treated cells: failed to significantly alter gene expression
